Assay results: patent publication US8748415B2 (priority 2011, dated 2014)

System: recombinant NL4-3 virus (Renilla luciferase in nef, Gag P373S)
Test: HIV cell culture assay (luciferase activity in MT-2 cells infected with NLRluc recombinant virus)
Assay type: cell-based
Details: NL43, MT-2 cells infected 4-5 days with NLRluc recombinant virus
In short: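 MT-2 cells in RPMI/10% FBS were infected with recombinant NL4-3 (NLRluc), produced by 293T transfection and titered in MT-2 by luciferase. Serial inhibitor dilutions were present throughout a 4–5 day infection. Antiviral activity was quantified as Renilla luciferase signal via a modified Dual Luciferase read.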

| SMILES | EC50 (class symbol) | EC50 (numeric value) |
| --- | --- | --- |
| C=C(C)[C@@H]1CC[C@]2(CN(CCN(C)C)C(=O)CC(=O)O)CC[C@]3(C)[C@H](CC[C@@H]4[C@@]5(C)CC=C(c6ccc(C(=O)O)cc6)C(C)(C)[C@@H]5CC[C@]43C)[C@@H]12 [Example 12, 4-((1R,3aS,5aR,5bR,7aR,11aS,11bR,13aR,13bR)-3a-((2-carboxy-N-(2-(dimethylamino)ethyl)acetamido)methyl)-5a,5b,8,8,11a-pentamethyl-1-(prop-1-en-2-yl)-2,3,3a,4,5,5a,5b,6,7,7a,8,11,11a,11b,12,13,13a,13b-octadecahydro-1H-cyclopenta[a]chrysen-9-yl)benzoic acid] | < 100 nM |  |
| C=C(C)[C@@H]1CC[C@]2(CNCCC(=O)O)CC[C@]3(C)[C@H](CC[C@@H]4[C@@]5(C)CC=C(c6ccc(C(=O)O)cc6)C(C)(C)[C@@H]5CC[C@]43C)[C@@H]12 [Example 64, 4-((1R,3aS,5aR,5bR,7aR,11aS,11bR,13aR,13bR)-3a-((2-carboxymethylamino)methyl)-5a,5b,8,8,11a-pentamethyl-1-(prop-1-en-2-yl)-2,3,3a,4,5,5a,5b,6,7,7a,8,11,11a,11b,12,13,13a,13b-octadecahydro-1H-cyclopenta[a]chrysen-9-yl)benzoic acid] | < 100 nM |  |
| C=C(C)[C@@H]1CC[C@]2(CNC(=O)C(F)(F)C(=O)NCCN(C)C)CC[C@]3(C)[C@H](CC[C@@H]4[C@@]5(C)CC=C(c6ccc(C(=O)O)cc6)C(C)(C)[C@@H]5CC[C@]43C)[C@@H]12 [Example 152, 4-((1R,3aS,5aR,5bR,7aR,11aS,11bR,13aR,13bR)-3a-((3-(2-(dimethylamino)ethylamino)-2,2-difluoro-3-oxopropanamido)methyl)-5a,5b,8,8,11a-pentamethyl-1-(prop-1-en-2-yl)-2,3,3a,4,5,5a,5b,6,7,7a,8,11,11a,11b,12,13,13a,13b-octadecahydro-1H-cyclopenta[a]chrysen-9-yl)benzoic acid] | < 100 nM |  |
| C=C(C)[C@@H]1CC[C@]2(CNC(=O)CN3CCS(=O)(=O)CC3)CC[C@]3(C)[C@H](CC[C@@H]4[C@@]5(C)CC=C(c6ccc(C(=O)O)cc6)C(C)(C)[C@@H]5CC[C@]43C)[C@@H]12 [Example 145, 4-((1R,3aS,5aR,5bR,7aR,11aS,11bR,13aR,13bR)-3a-((((1,1-dioxido-4-thiomorpholinyl)acetyl)amino)methyl)-1-isopropenyl-5a,5b,8,8,11a-pentamethyl-2,3,3a,4,5,5a,5b,6,7,7a,8,11,11a,11b,12,13,13a,13b-octadecahydro-1H-cyclopenta[a]chrysen-9-yl)benzoic acid] | < 100 nM |  |
| C=C(C)[C@@H]1CC[C@]2(CNCCC(=O)OC)CC[C@]3(C)[C@H](CC[C@@H]4[C@@]5(C)CC=C(c6ccc(C(=O)O)cc6)C(C)(C)[C@@H]5CC[C@]43C)[C@@H]12 [Example 176, 4-((1R,3aS,5aR,5bR,7aR,11aS,11bR,13aR,13bR)-3a-((3-methoxy-3-oxopropylamino)methyl)-5a,5b,8,8,11a-pentamethyl-1-(prop-1-en-2-yl)-2,3,3a,4,5,5a,5b,6,7,7a,8,11,11a,11b,12,13,13a,13b-octadecahydro-1H-cyclopenta[a]chrysen-9-yl)benzoic acid] |  | 14 nM |
| C=C(C)[C@@H]1CC[C@]2(CNCCCN3CCCC3CO)CC[C@]3(C)[C@H](CC[C@@H]4[C@@]5(C)CC=C(c6ccc(C(=O)O)cc6)C(C)(C)[C@@H]5CC[C@]43C)[C@@H]12 (stereo partly drawn) [Example 74, 4-((1R,3aS,5aR,5bR,7aR,11aS,11bR,13aR,13bR)-3a-((3-(2-(hydroxymethyl)pyrrolidin-1-yl)propylamino)methyl)-5a,5b,8,8,11a-pentamethyl-1-(prop-1-en-2-yl)-2,3,3a,4,5,5a,5b,6,7,7a,8,11,11a,11b,12,13,13a,13b-octadecahydro-1H-cyclopenta[a]chrysen-9-yl)benzoic acid] | < 100 nM |  |
| C=C(C)[C@@H]1CC[C@]2(CNC3(CN4CCCCC4)CC3)CC[C@]3(C)[C@H](CC[C@@H]4[C@@]5(C)CC=C(c6ccc(C(=O)O)cc6)C(C)(C)[C@@H]5CC[C@]43C)[C@@H]12 [Example 82, 4-((1R,3aS,5aR,5bR,7aR,11aS,11bR,13aR,13bR)-5a,5b,8,8,11a-pentamethyl-3a-((1-(piperidin-1-ylmethyl)cyclopropylamino)methyl)-1-(prop-1-en-2-yl)-2,3,3a,4,5,5a,5b,6,7,7a,8,11,11a,11b,12,13,13a,13b-octadecahydro-1H-cyclopenta[a]chrysen-9-yl)benzoic acid] | < 100 nM |  |
| C=C(C)[C@@H]1CC[C@]2(CNCCc3ccc(C(=O)OC)cc3)CC[C@]3(C)[C@H](CC[C@@H]4[C@@]5(C)CC=C(c6ccc(C(=O)O)cc6)C(C)(C)[C@@H]5CC[C@]43C)[C@@H]12 [Example 46, 4-((1R,3aS,5aR,5bR,7aR,11aS,11bR,13aR,13bR)-3a-((4-(methoxycarbonyl)phenethylamino)methyl)-5a,5b,8,8,11a-pentamethyl-1-(prop-1-en-2-yl)-2,3,3a,4,5,5a,5b,6,7,7a,8,11,11a,11b,12,13,13a,13b-octadecahydro-1H-cyclopenta[a]chrysen-9-yl)benzoic acid] | < 100 nM |  |
| C=C(C)[C@@H]1CC[C@]2(CNCCC(=O)N3CCN(S(=O)(=O)N(C)C)CC3)CC[C@]3(C)[C@H](CC[C@@H]4[C@@]5(C)CC=C(c6ccc(C(=O)O)cc6)C(C)(C)[C@@H]5CC[C@]43C)[C@@H]12 [Example 97, 4-((1R,3aS,5aR,5bR,7aR,11aS,11bR,13aR,13bR)-3a-((3-(4-(N,N-dimethylsulfamoyl)piperazin-1-yl)-3-oxopropylamino)methyl)-5a,5b,8,8,11a-pentamethyl-1-(prop-1-en-2-yl)-2,3,3a,4,5,5a,5b,6,7,7a,8,11,11a,11b,12,13,13a,13b-octadecahydro-1H-cyclopenta[a]chrysen-9-yl)benzoic acid] | < 100 nM |  |
| C=C(C)[C@@H]1CC[C@]2(CNCCCN)CC[C@]3(C)[C@H](CC[C@@H]4[C@@]5(C)CC=C(c6ccc(C(=O)O)cc6)C(C)(C)[C@@H]5CC[C@]43C)[C@@H]12 [Example 67, 4-((1R,3aS,5aR,5bR,7aR,11aS,11bR,13aR,13bR)-3a-((3-aminopropylamino)methyl)-5a,5b,8,8,11a-pentamethyl-1-(prop-1-en-2-yl)-2,3,3a,4,5,5a,5b,6,7,7a,8,11,11a,11b,12,13,13a,13b-octadecahydro-1H-cyclopenta[a]chrysen-9-yl)benzoic acid] | < 100 nM |  |
| C=C(C)[C@@H]1CC[C@]2(CNC3(CN(CC)CC)CC3)CC[C@]3(C)[C@H](CC[C@@H]4[C@@]5(C)CC=C(c6ccc(C(=O)O)cc6)C(C)(C)[C@@H]5CC[C@]43C)[C@@H]12 [Example 52, 4-((1R,3aS,5aR,5bR,7aR,11aS,11bR,13aR,13bR)-3a-((1-((diethylamino)methyl)cyclopropylamino)methyl)-5a,5b,8,8,11a-pentamethyl-1-(prop-1-en-2-yl)-2,3,3a,4,5,5a,5b,6,7,7a,8,11,11a,11b,12,13,13a,13b-octadecahydro-1H-cyclopenta[a]chrysen-9-yl)benzoic acid] | < 100 nM |  |
| C=C(C)[C@@H]1CC[C@]2(CNCCN(C)CCO)CC[C@]3(C)[C@H](CC[C@@H]4[C@@]5(C)CC=C(c6ccc(C(=O)O)cc6)C(C)(C)[C@@H]5CC[C@]43C)[C@@H]12 [Example 26, 4-((1R,3aS,5aR,5bR,7aR,11aS,11bR,13aR,13bR)-3a-((2-((2-hydroxyethyl)(methyl)amino)ethylamino)methyl)-5a,5b,8,8,11a-pentamethyl-1-(prop-1-en-2-yl)-2,3,3a,4,5,5a,5b,6,7,7a,8,11,11a,11b,12,13,13a,13b-octadecahydro-1H-cyclopenta[a]chrysen-9-yl)benzoic acid] | < 100 nM |  |
| C=C(C)[C@@H]1CC[C@]2(CNC(=O)CN3CCCCS3(=O)=O)CC[C@]3(C)[C@H](CC[C@@H]4[C@@]5(C)CC=C(c6ccc(C(=O)O)cc6)C(C)(C)[C@@H]5CC[C@]43C)[C@@H]12 [Example 147, 4-((1R,3aS,5aR,5bR,7aR,11aS,11bR,13aR,13bR)-3a-((((1,1-dioxido-1,2-thiazinan-2-yl)acetyl)amino)methyl)-1-isopropenyl-5a,5b,8,8,11a-pentamethyl-2,3,3a,4,5,5a,5b,6,7,7a,8,11,11a,11b,12,13,13a,13b-octadecahydro-1H-cyclopenta[a]chrysen-9-yl)benzoic acid] | < 100 nM |  |
| C=C(C)[C@@H]1CC[C@]2(CNS(=O)(=O)c3ccc(C(=O)O)cc3)CC[C@]3(C)[C@H](CC[C@@H]4[C@@]5(C)CC=C(c6ccc(C(=O)O)cc6)C(C)(C)[C@@H]5CC[C@]43C)[C@@H]12 [Example 167, 4-(N—(((1R,3aS,5aR,5bR,7aR,11aS,11bR,13aR,13bR)-9-(4-carboxyphenyl)-5a,5b,8,8,11a-pentamethyl-1-(prop-1-en-2-yl)-2,3,3a,4,5,5a,5b,6,7,7a,8,11,11a,11b,12,13,13a,13b-octadecahydro-1H-cyclopenta[a]chrysen-3a-yl)methyl)sulfamoyl)benzoic acid] | < 100 nM |  |
| C=C(C)[C@@H]1CC[C@]2(CNCCC(=O)N3CCCC3)CC[C@]3(C)[C@H](CC[C@@H]4[C@@]5(C)CC=C(c6ccc(C(=O)O)c(F)c6)C(C)(C)[C@@H]5CC[C@]43C)[C@@H]12 [Example 90, 2-fluoro-4-((1R,3aS,5aR,5bR,7aR,11aS,11bR,13aR,13bR)-5a,5b,8,8,11a-pentamethyl-3a-((3-oxo-3-(pyrrolidin-1-yl)propylamino)methyl)-1-(prop-1-en-2-yl)-2,3,3a,4,5,5a,5b,6,7,7a,8,11,11a,11b,12,13,13a,13b-octadecahydro-1H-cyclopenta[a]chrysen-9-yl)benzoic acid] | < 100 nM |  |
